According to patent US9983196B2, “Compositions and methods for optimizing drug hydrophobicity and drug delivery to cells” (Bioelastics, Inc., priority 2009, dated 2018):
Blank lines part the entries; values can stand above or below the substance they belong to.

Legend:
[1] = negatively stained, electron micrograph; cited from earlier work
[2] = cited from earlier work
[3] = differential scanning calorimetry of the inverse temperature transition: ΔGHA-based hydrophobicity scale; assay type: physicochemical; conditions: from Table 1
Source text: Described herein is a hydrophobicity scale based on the change in Gibbs free energy of hydrophobic association. Increase in entropy of water drives endothermic phase transition of hydrophobic association. For a narrow phase transition the chemical potential, t, of the molecules in the phase separated, hydrophobically associated state, 1.IHA, and the solution, hydrophobically dissociated state, 1.1HD, are equal. Therefore, at constant temperature and pressure, i.e., at equilibrium, the change in Gibbs free energy for the phase transition is zero, (ΔGt)TP=0 and ΔHT=TtΔSt. For the breadth of the transition of elastic-contractile model proteins [ECMP], it is written: ΔHt≈TtΔSt, (1) i.e., the heat of the transition, ΔHt in kcal/mol, is approximated by the product of the temperature of the transition, Tt in ° K, times the entropy change attending the transition, ΔSt in kcal/° K-mol.
The van der Walls interaction is exothermic for the hydrophobic association attending the ITT, yet the ITT is endothermic. […] The derivation of the change in Gibbs free energy for hydrophobic association, ΔGHA, and evaluation by inverse temperature transition of hydrophobic association has been reported previously (D. W. Urry, The Change in Gibbs Free Energy for Hydrophobic Association Derivation and Evaluation by means of Inverse Temperature Transitions. Chem. Phys. Letters 399 (2004) 177-183.), and is given more simply below. […]
Given the above approximation, but also recognizing that ASt is a calculated result from the differential scanning calorimetric measurement of ΔHt, we define the change in Gibbs free energy for hydrophobic association, ΔGHA, as,
The differential scanning calorimetry (DSC) data of ΔHt(GVGVP) (SEQ ID NO:4) and ΔHt(GVGIP) (SEQ ID NO:8) in FIG. 1 of Luan and Urry, J Phys Chem 95:7896-7900, 1991 provide a specific example of the difference that defines ΔGHA. […] This is the same value of 1.5 kcal/mol-CH2 for the addition of a single CH2 as determined by Butler for the alcohol series.
Once the values are determined by difference with ΔHt(GVGVP) (SEQ ID NO:4) as represented in FIG. 1E, they are translated so the reference polymer is taken as (GGGVP (SEQ ID NO:11), as this residue is considered to be close to neutral, being neither polar nor apolar. For use of (GGGVP) (SEQ ID NO:11) as the reference, i.e., ΔHt(GGGVP) (SEQ ID NO:11)=AHt(ref), in Table 3 and FIG. 13, the change in Gibbs free energy for hydrophobic association is indicated as ΔG^oHA, i.e., […]
In this case most of the ΔG^oHA values have been obtained by taking the experimental Tt, suitably extrapolated to fx=1 to obtain Tt, and reading the value of ΔG^oHA from the sigmoid curve of FIG. 13. […]

[4] = cited from earlier work; remark: listed apart in the source

Substance: (GVGVPGVGFPGEGFPGVGVPGVGFPGFGFP)42 (GVGVP) (GVGVPGVGFPGEGFPGVGVPGVGFPGFGFPGVGVP; repeat (1)..(30) the first 30 residues are repeated 42 times) [ECMP polymer of 253 pentamers forming drug delivery nanoparticles]
nominal size of nanoparticles [1]: 50 nm

change on replacement of Val by Leu (single —CH2—) [3]: −1.55 kcal/mol-CH2
Substance: Leu [L: Leu]
Tt ([2]; guest residue χ in poly[fχ(GχGVP),fv(GVGVP)], extrapolated to fχ=1, some cells marked (Tt)): 5 °C
ΔG°HA(GχGVP) ([4]; DSC, reference GGGVP = 0): −4.05 kcal/mol-pentamer

ΔGHA of ionization (neutral versus charged residue) [3]: 5.2 kcal/mol-pentamer
Substance: Glu(COO^−) [E−: Glu(COO^−)]
Tt (data within parentheses) ([2]; microbial preparations of poly(30 mers) (GVGVP GVGVP GχGVP GVGVP GVGVP GVGVP)n, n ≈ 40): (218) ° C.
ΔG°HA(GχGVP) (data within parentheses) ([4]; microbial preparations of poly(30 mers), n ≈ 40): (+3.72) kcal/mol-pentamer
